# From article PMC7403827 (Clinical and Translational Medicine, 2020)
# Where two headings read alike, the source gives them in different places.
# How the values were obtained:
# [1] = previously reported, cited from earlier work
# [2] = test system: EGFR‐mutant advanced non‐squamous NSCLC; assay: Antitumor response (RECIST 1.1), PFS and OS; conditions: for median PFS: Kaplan‐Meier
# From the text: Other endpoints included objective response rate (ORR) and disease control rate (DCR), progression‐free survival (PFS), and overall survival (OS). […] Combination therapy was continued until the status of progression disease, unbearable toxicity, withdrawal of informed consent form or discontinuation that was at the discretion of the principal investigator (see Supporting Information).
# Adverse events (AEs) in line with the version 4.0 of National Cancer Institute's Common Terminology Criteria for Adverse Events (CTCAE 4.0) were evaluated by the investigators. AEs were strictly recorded from the timepoint that ICF was obtained to 28 days after the finish of study. Imaging examinations was conducted before treatment, at the finish of the first follow‐up, and every other two follow‐ups afterward by taking the same examinations. Response of tumor was assessed based on the RECIST 1.1 guidelines. Primary assessment for antitumor response: (a) ORR, defining as the proportion of participants that achieved a complete response (CR) or a partial response (PR); (b) disease control rate (DCR), defining as the proportion of participants reached a status of CR or PR or stable disease (SD). After 4 weeks, best overall response (BOR) was confirmed.
# Patients in the ITT analysis who had complete safety records were pooled in the safety set (SS). The qualitative and quantitative data were summarized with the descriptive statistics. Efficacy was also assessed in the ITT analysis. The Kaplan‐Meier method described PFS and OS. Survival distribution differences were evaluated by the log‐rank test. […] Fisher's exact test compared the response rate in the various subgroups. Two‐sided tests were applied. […] All statistical analyses and graphs were made by the Statistical Package for Social Sciences (SPSS) 23.0 and GraphPad Prism 7.
# [3] = Apatinib 250mg, ref [1] Yu M et al., Clinical Pharmacokinetics 2017
# [4] = Apatinib 500mg, ref [2] Ding J et al., J Chromatogr B 2012
# [5] = Apatinib Dose Cohort 250mg + gefitinib 250 mg, evaluable patients
# [6] = Apatinib Dose Cohort 500mg + gefitinib 250 mg, evaluable patients
# [7] = Total, both apatinib dose cohorts (n = 11)
smiles,measurement,setting,value
N#CC1(c2ccc(NC(=O)c3cccnc3NCc3ccncc3)cc2)CCCC1 [Apatinib],AUC0-24,[1]; [3],3538 (1996-6025) ng·h/ml
same,Cmax,[1]; [3],581 (321-1216) ng/ml
same,AUC0-24,[1]; [4],11295 (70) ng·h/ml
same,Cmax,[1]; [4],1521 (75) ng/ml
same,Tmax,[1]; [4],3.5 (3-8) h
same,"CR, patients",[2]; [5],0
same,Disease Control CR+PR+SD,[2]; [5],6 (100.0) n (%)
same,Objective Response CR+PR,[2]; [5],5 (83.3) n (%)
same,"PD, patients",[2]; [5],0
same,"PR, patients",[2]; [5],5
same,"CR, patients",[2]; [6],0
same,Disease Control CR+PR+SD,[2]; [6],4 (80.0) n (%)
same,Objective Response CR+PR,[2]; [6],4 (80.0) n (%)
same,"PD, patients",[2]; [6],1
same,"PR, patients",[2]; [6],4
same,median PFS,[2]; Cohort A (apatinib 500 mg + gefitinib 250 mg),19.2 months
same,ORR,[2]; Cohort A: apatinib 500 mg + gefitinib 250 mg (4/5),80%
same,median PFS,[2]; Cohort B (apatinib 250 mg + gefitinib 250 mg),13.4 months
same,ORR,[2]; Cohort B: apatinib 250 mg + gefitinib 250 mg (5/6),83.3%
same,"CR, patients",[2]; [7],0
same,Disease Control CR+PR+SD,[2]; [7],10 (90.9) n (%)
same,Objective Response CR+PR,[2]; [7],9 (81.8) n (%)
same,"PD, patients",[2]; [7],1
same,"PR, patients",[2]; [7],9
same,DCR,[2]; apatinib 250 mg group + gefitinib 250 mg (6/6),100%
same,DCR,[2]; apatinib 500 mg group + gefitinib 250 mg (4/5),80.0%
